Measurements taken from ChEMBL document CHEMBL1817622, “Synthesis, structure-activity relationship and biological evaluation of novel N-substituted matrinic acid derivatives as host heat-stress cognate 70 (Hsc70) down-regulators” (2011).
Calls of active or inactive are those of the source. The rule behind the calls is not given here.

Experiments:
[1] = system: HepG2 2.2.15; assay: Inhibition of Hsc70 mRNA expression in human HepG2(2.2.15) cells at 100 ug/ml after 24 hrs by RT-PCR analysis; format: functional; conditions: HepG2 2.2.15, 24 h
[2] = system: Hepatitis B virus; assay: Antiviral activity against Hepatitis B virus infected in human HepG2(2.2.15) cells assessed as inhibition of intracellular HBV DNA replication at 100 ug/mL for 24 hrs by RT-PCR analysis; format: functional; parameters: scale not given: the % may be the effect or the level left
[3] = Down regulation of Hsc70 protein level in human HepG2(2.2.15) cells after 24 hrs by RT-PCR analysis; format: functional, cell-based
[4] = Down regulation of Hsc70 protein level in human HepG2(2.2.15) cells at 500 ug/mL for 24 hrs by RT-PCR analysis; format: functional, cell-based
[5] = Down regulation of Hsc70 protein level in human HepG2(2.2.15) cells at 100 ug/mL for 24 hrs by RT-PCR analysis; format: functional, cell-based
[6] = system: HepG2 2.2.15; assay: Ratio of […] to compound inhibition of mRNA expression in human HepG2(2.2.15) cells infected with Hepatitis B virus; format: functional

[O-][N+]12CCC[C@H]3CN[C@H](CCCCO)[C@@H](CCC1)[C@H]32 (some centres not stated) [OXYMATRINOL]
inhibition at 100 µg/mL [1]: < 10%

O=C(O)CCC[C@@H]1[C@H]2CCCN3CCC[C@@H](CN1C(=O)CO)[C@@H]23
inhibition at 100 µg/mL [1]: < 10%

O=C(O)CCC[C@H]1NC[C@@H]2CCCN3CCC[C@H]1[C@H]23 [MATRINIC ACID]
inhibition at 100 µg/mL [1]: 46.2%

COc1cccc(CN2C[C@@H]3CCCN4CCC[C@@H]([C@H]34)[C@H]2CCCC(=O)O)c1
inhibition at 100 µg/mL [1]: 55.6%

C[N+]1(C)C[C@@H]2CCCN3CCC[C@@H]([C@H]23)[C@H]1CCCC(=O)O
inhibition at 100 µg/mL [1]: 14.1%

COc1ccc(CN2C[C@@H]3CCC[N+]4([O-])CCC[C@@H]([C@H]34)[C@H]2CCCC(=O)O)cc1 (some centres not stated)
inhibition at 100 µg/mL [1]: 69.7%

CCCN1C[C@@H]2CCCN3CCC[C@@H]([C@H]23)[C@H]1CCCC(=O)O
inhibition at 100 µg/mL [1]: < 10%

Cc1ccc(S(=O)(=O)N2C[C@@H]3CCCN4CCC[C@@H]([C@H]34)[C@H]2CCCC(=O)O)cc1
inhibition at 100 µg/mL [1]: 39.8%

Cc1cccc(OCC(=O)N2C[C@@H]3CCCN4CCC[C@@H]([C@H]34)[C@H]2CCCC(=O)O)c1
inhibition at 100 µg/mL [1]: < 10%

O=C(O)CCC[C@@H]1[C@H]2CCCN3CCC[C@@H](CN1S(=O)(=O)c1ccccc1)[C@@H]23
inhibition at 100 µg/mL [1]: 22.1%

Cc1cccc(OC(C)C(=O)N2C[C@@H]3CCCN4CCC[C@@H]([C@H]34)[C@H]2CCCC(=O)O)c1 (some centres not stated)
inhibition at 100 µg/mL [1]: < 10%

C[N+]1(C)C[C@@H]2CCC[N+]3([O-])CCC[C@@H]([C@H]23)[C@H]1CCCC(=O)O (some centres not stated)
inhibition at 100 µg/mL [1]: < 10%

O=C(O)CCC[C@@H]1[C@H]2CCCN3CCC[C@@H](CN1C(=O)CCl)[C@@H]23
inhibition at 100 µg/mL [1]: < 10%

O=C1CCC[C@@H]2[C@H]3CCCN4CCC[C@@H](CN12)[C@@H]34 [MATRINE]
inhibition at 100 µg/mL [1]: 52.4%

COc1ccc(CN2C[C@@H]3CCCN4CCC[C@@H]([C@H]34)[C@H]2CCCCO)cc1
inhibition at 100 µg/mL [1]: 12.2%

CCN1C[C@@H]2CCCN3CCC[C@@H]([C@H]23)[C@H]1CCCC(=O)O
inhibition at 100 µg/mL [1]: < 10%

O=C(O)CCC[C@@H]1[C@H]2CCC[N+]3([O-])CCC[C@@H](CN1Cc1ccccc1)[C@@H]23 (some centres not stated)
inhibition at 100 µg/mL [1]: 58.2%

O=CN1C[C@@H]2CCCN3CCC[C@@H]([C@H]23)[C@H]1CCCC(=O)O
inhibition at 100 µg/mL [1]: < 10%

O=C(O)CCC[C@H]1NC[C@@H]2CCC[N+]3([O-])CCC[C@H]1[C@H]23 (some centres not stated) [OXYMATRINIC ACID]
inhibition at 100 µg/mL [1]: 45.5%

O=C1CCC[C@@H]2[C@H]3CCC[N+]4([O-])CCC[C@@H](CN12)[C@@H]34 (some centres not stated) [OXYMATRINE]
Activity [2]: 56%
inhibition at 100 µg/mL [1]: 52%
Activity [3]: Dose-dependent effect

O=C(O)CCC[C@@H]1[C@H]2CCCN3CCC[C@@H](CN1C(=O)c1ccccc1)[C@@H]23
inhibition at 100 µg/mL [1]: 33.6%

OCCCC[C@H]1NC[C@@H]2CCCN3CCC[C@H]1[C@H]23 [MATRINOL]
inhibition at 100 µg/mL [1]: 39.3%

OCCCC[C@@H]1[C@H]2CCCN3CCC[C@@H](CN1Cc1ccccc1)[C@@H]23
inhibition at 100 µg/mL [1]: 25.5%

O=C(O)CCC[C@@H]1[C@H]2CCC[N+]3([O-])CCC[C@@H](CN1CC1CC1)[C@@H]23 (some centres not stated)
inhibition at 100 µg/mL [1]: < 10%

CC(=O)N1C[C@@H]2CCCN3CCC[C@@H]([C@H]23)[C@H]1CCCC(=O)O
inhibition at 100 µg/mL [1]: 29.8%

O=C(O)CCC[C@@H]1[C@H]2CCCN3CCC[C@@H](CN1C(=O)/C=C/c1ccccc1)[C@@H]23
inhibition at 100 µg/mL [1]: < 10%

O=C(O)CCC[C@@H]1[C@H]2CCCN3CCC[C@@H](CN1CC1CC1)[C@@H]23
inhibition at 100 µg/mL [1]: < 10%

O=C(O)CCC[C@@H]1[C@H]2CCCN3CCC[C@@H](CN1Cc1ccccc1)[C@@H]23
inhibition at 100 µg/mL [1]: 55.9%

COc1ccc(CN2C[C@@H]3CCCN4CCC[C@@H]([C@H]34)[C@H]2CCCC(=O)O)cc1
Activity [2]: 77%
inhibition at 100 µg/mL [1]: 72.1%
Activity [4]: Active
Activity [5]: Active
fold change (FC) [6]: 1.3
Activity [3]: Dose-dependent effect

O=C(O)CCC[C@@H]1[C@H]2CCCN3CCC[C@@H](CN1CCO)[C@@H]23
inhibition at 100 µg/mL [1]: 53.7%
